Results: patent publication US20240081377A1, “USING ORGANOIDS AND/OR SPHEROIDS TO CULTIVATE MEAT” (Orbillion Bio, Inc., priority 2020, published 2024)

Tests used:
spheroids = test: Spheroid expansion (spheroid diameter) following recombinant growth factor treatment; type: cell-based; details: wells 300 μm in diameter, 3 days after treatment
Excerpt: (§1) FIG. 20A to FIG. 20B illustrates spheroid diameter of cells cultured in wells measuring 900 μm in diameter for 12 days following growth factor treatment with fibroblast growth factor (FGF), hepatocyte growth factor (HGF), and insulin-like growth factor (IGF). More specifically, FIG. 20A depicts spheroid diameter in and FIG. 20B depicts spheroid diameter as a percentage of size increase as compared to control.
as §1, with “21A” for “20A”, “21B depicts” for “20B illustrates”, “300” for “900”, “21B” for “20B”

A549 spheroids = test: On-chip drug toxicity screening of A549 spheroids (dye exclusion assay, Hoechst / ethidium homodimer-1); type: cell-based, human; details: A549 spheroids of all sizes (300-1000 μm), different concentrations, 24 hours
Protocol: A549 cells were seeded at a concentration of 1×10^6 cells per ml and cultivated for three days under standard cell culture conditions under bi-directional flow (e.g. using a rocking device). Stock solutions of 10 mM cisplatin (Sigma-Aldrich, Austria) in DMSO and 10 mM doxorubicin (Sigma-Aldrich, Austria) in PBS were prepared. Doxorubicin and cisplatin were dissolved in cell culture medium to yield concentrations of 0.5, 1, 5, 10, 25, 50 and 500 μM for the treatment of A549 spheroids. Cell culture medium within the channels of the devices was replaced with drug containing medium and incubated for 24 hours prior to cell death analyses. One channel on a separate device was used as an untreated control. […] Raw fluorescence signals were processed and dose-response curves were generated by Sigmoidal-4PL non-linear regression analysis.
Live A549 cell spheroids of different sizes (300 μm, 500 μm, 700 μm, 900 μm, 1000 μm in diameter) were stained with Hoechst; blue and Ethidium homodimer-1; red and treated with different concentrations (100 μM, 10 μM and 1 μM) of CIS, DOX, and CIS:DOX to screen drug toxicity for up to 24 hours following drug treatment. […] Viability of live human A549 cell spheroids of different sizes (measured as a % of the untreated control) was calculated as a function of chemotherapy drug treatment concentration (CIS, DOX, and CIS:DOX). […]

Molecule	spheroid diameter, size increase as compared to control (spheroids)	viability of A549 cell spheroids (measured as a % of the untreated control) (A549 spheroids)
HGF: recombinant hepatocyte growth factor	largest difference	–
COc1cccc2c1C(=O)c1c(O)c3c(c(O)c1C2=O)C[C@@](O)(C(=O)CO)C[C@@H]3O[C@H]1C[C@H](N)[C@H](O)[C@H](C)O1 [DOX, Doxorubicin]	–	decreased sharply
